pIC50: −log10 of the molar value. Where a SMILES comes first, the peptide text is derived from it. [ ]: non-standard residue; d: D form. The star is where a group is joined. X1 = C=C[C@@H](CC(O)[C@H](CC1CCCCC1)N*)C(C)C; Boc = CC(C)(C)OC(=O)*

For this experiment, the target named is T1, human renin (Homo sapiens, UniProt P00797).
T1 sequence (P00797 67-406): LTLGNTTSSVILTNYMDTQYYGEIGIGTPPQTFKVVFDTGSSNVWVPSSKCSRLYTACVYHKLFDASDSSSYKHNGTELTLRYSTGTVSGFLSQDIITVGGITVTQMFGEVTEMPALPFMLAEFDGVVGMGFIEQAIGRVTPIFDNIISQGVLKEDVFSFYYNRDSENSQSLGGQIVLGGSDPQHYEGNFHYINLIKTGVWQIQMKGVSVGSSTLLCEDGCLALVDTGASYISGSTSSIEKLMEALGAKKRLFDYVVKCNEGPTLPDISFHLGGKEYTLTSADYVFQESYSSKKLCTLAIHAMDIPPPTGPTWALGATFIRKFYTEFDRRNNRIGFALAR
The experiment is described as follows: In Vitro Test With Pure Human Renin. The format is biochemical. The following applies: human tetradecapeptide renin substrate (hTD), pH 7.4, 3 hours at 37° C. vs 4° C., angiotensin I by RIA. The procedure:
In Vitro Test With Pure Human Renin
The test is carried out in Eppendorf test tubes. The incubation mixture consists of (1) 100 μl of human renin in buffer A (0.1M sodium phosphate solution, pH 7.4, containing 0.1% bovine serum albumin, 0.1% sodium azide and 1 mM ethylenediaminetetraacetic acid), sufficient for a renin activity of 2-3 ng of angiotensin I/ml/hr.; (2) 145 μl of buffer A; (3) 30 μl of 10 μM human tetradecapeptide renin substrate (hTD) in 10 mM hydrochloric acid; (4) 15 μl of dimethyl sulfoxide with or without inhibitor and (5) 10 μl of a 0.03 molar solution of hydroxyquinoline sulfate in water.
The samples are incubated for 3 hours at 37° C. or 4° C. in triplicate. 2×100 μl samples per experimental test tube are used in order to measure the production of angiotensin I via RIA (standard radioimmunoassay; clinical assay solid phase kit). […] The production of angiotensin I in determined by the difference between the experiment at 37° C. and that at 4° C.
The following controls are carried out:
(a) Incubation of hTD samples without renin and without inhibitor at 37° C. and 4° C. The difference between these two values gives the base value of angiotensin I production.
(b) Incubation of hTD samples with renin, but without inhibitor at 37° C. and 4° C. The difference between these values gives the maximal value of angiotensin I production.
In each sample, the base value of the angiotensin I production is subtracted from the angiotensin I production which is determined. The difference between the maximal value and the base value gives the value of the maximal substrate hydrolysis (=100%) by renin.
The IC50 values are determined from a linear regression curve from a logit-log plot.
For `C=C[C@@H](C[C@H](O)[C@H](CC1CCCCC1)NC(=O)[C@H](Cc1c[nH]cn1)NC(=O)[C@H](Cc1ccccc1)NC(=O)OC(C)(C)C)C(C)C` [D, t-butyl [(S)-α-[[(S)-1-[[(1S,2S,4S)-1-cyclohexylmethyl-2-hydroxy-4-isopropyl-5-hexenyl]carbamoyl]-2-imidazol-4-ylethyl]carbamoyl]phenethyl]carbamate], the negative logarithm of the IC50 (pIC50) was 8.12.

The molecule `C=C[C@@H](C[C@H](O)[C@H](CC1CCCCC1)NC(=O)[C@H](Cc1c[nH]cn1)NC(=O)[C@@H](CC(N)=O)Cc1ccccc1)C(C)C` [N, (S)-α-[(R)-α-(carbamoylmethyl)hydrocinnamamido]-N-[(1S,2S,4S)-1-(cyclohexylmethyl)-2-hydroxy-4-isopropyl-5-hexenyl]imidazole-4-propionamide] had a negative logarithm of the IC50 (pIC50) of 6.85.

`C=C[C@@H](C[C@H](O)[C@H](CC1CCCCC1)NC(=O)[C@H](Cc1c[nH]cn1)NC(=O)[C@@H](CC(=O)N(C)C)Cc1ccccc1)C(C)C` [O, (S)-N-[(1S,2S,4S)-1-(cyclohexylmethyl)-2-hydroxy-4-isopropyl-5-hexenyl]-α-[(R)-α-[(dimethylcarbamoyl)-methyl]hydrocinnamamido]imidazole-4-propionamide]: the negative logarithm of the IC50 (pIC50) is 7.92.

`CC[C@@H](C[C@H](O)[C@H](CC1CCCCC1)NC(=O)[C@H](Cc1c[nH]cn1)NC(=O)[C@@H](CC(=O)NC(C)(CO)CO)Cc1ccccc1)C(C)C` [G, (S)-N-[(1S,2S,4S)-1-(cyclohexylmethyl)-2-hydroxy-4-isopropylhexyl]-α-[[[[(R)-α-2-hydroxy-1-(hydroxymethyl)-1-methylethyl]carbamoyl]methyl]hydrocinnamamido]imidazole-4-propionamide] showed a pIC50 of 7.82.

As to `C=C[C@@H](C[C@H](O)[C@H](CC1CCCCC1)NC(=O)[C@H](Cc1c[nH]cn1)NC(=O)C(CC(=O)C1CCCC1)Cc1ccccc1)C(C)C` (mixture of isomers) [P, (S)-N-[(1S,2S,4S)-1-(cyclohexylmethyl)-2-hydroxy-4-isopropyl-5-hexenyl]-α-[(RS)-α-[(cyclopentyl-carbonyl)methyl]hydrocinnamamido]imidazole-4-propionamide], the negative-log IC50 (pIC50) was 7.34.

`C=C[C@@H](CC(O)[C@H](CC1CCCCC1)NC(=O)[C@H](Cc1c[nH]cn1)NC(=O)[C@H](Cc1ccccc1)NC(=O)[C@@H]1CCCN1C(=O)[C@H]1CCCN1C(=O)OC(C)(C)C)C(C)C` (stereo partly drawn) [R, (2S,5S)-2-(Boc--D--Pro--Pro--Phe--His--NH)-1-cyclohexyl-5-isopropyl-6-hepten-3-ol] (Boc-[dP]PFH-X1) had a negative logarithm of the IC50 (pIC50) of 8.77.

The molecule `CC[C@@H](C[C@H](O)[C@H](CC1CCCCC1)NC(=O)[C@H](Cc1c[nH]cn1)NC(=O)C(CC(=O)C1CCCC1)Cc1ccccc1)C(C)C` (mixture of isomers) [Q] had a negative-log IC50 (pIC50) of 7.17.

`CC[C@@H](C[C@H](O)[C@H](CC1CCCCC1)NC(=O)[C@H](Cc1c[nH]cn1)NC(=O)C(CC(=O)N1CCOCC1)Cc1cccc2ccccc12)C(C)C` (some centres unmarked) [H] showed a pIC50 of 8.39.

`CC[C@@H](C[C@H](O)[C@H](CC1CCCCC1)NC(=O)[C@H](Cc1c[nH]cn1)NC(=O)[C@H](Cc1ccccc1)NC(=O)[C@H]1CCCN1C(=O)OC(C)(C)C)C(C)C` [A] gave a pIC50 of 8.46.

As to `C=C[C@@H](C[C@H](O)[C@H](CC1CCCCC1)NC(=O)[C@H](Cc1c[nH]cn1)NC(=O)C(CC(=O)NCCN(CC(=O)OC(C)(C)C)C(=O)OC(C)(C)C)Cc1ccccc1)C(C)C` (mixture of isomers) [Compound I, t-butyloxycarbonyl [2-[(R and S)-3-[[(S)-1-[[(1S,2S,4S)-1-(cyclohexylmethyl)-2-hydroxy-4-isopropyl-5-hexenyl]carbamoyl]-2-imidazol-4-ylethyl]-carbamoyl]-4-phenylbutyramido]ethyl]glycine t-butyl ester], the pIC50 was 7.34.

`CC[C@@H](C[C@H](O)[C@H](CC1CCCCC1)NC(=O)[C@H](Cc1c[nH]cn1)NC(=O)[C@@H](CC(=O)[C@@H]1CCCN1C(=O)OC(C)(C)C)Cc1ccccc1)C(C)C` [F, t-butyl (S)-2-[[(R)-α-[[(S)-1-[[(1S,2S,4S)-1-(cyclohexylmethyl)-2-hydroxy-4-isopropylhexyl]carbamoyl]-2-imidazol-4-ylethyl]carbamoyl]phenethyl]acetyl]-1-pyrrolidinecarboxylate]: the pIC50 was 8.40.

`C=C[C@@H](C[C@H](O)[C@H](CC1CCCCC1)NC(=O)[C@H](Cc1c[nH]cn1)NC(=O)[C@@H](CC(=O)C(C)(C)C)Cc1ccccc1)C(C)C` [L] gave a pIC50 of 8.15.

The molecule `C=C[C@@H](C[C@H](O)[C@H](CC1CCCCC1)NC(=O)[C@H](Cc1c[nH]cn1)NC(=O)CC(C)C)C(C)C` [C] had a negative logarithm of the IC50 (pIC50) of 8.05.

As to `C=C[C@@H](C[C@H](O)[C@H](CC1CCCCC1)NC(=O)[C@H](Cc1c[nH]cn1)NC(=O)[C@@H](CC(=O)NC(C)(CO)CO)Cc1ccccc1)C(C)C` [K, (S)-N-[(1S,2S,4S)-1-(cyclohexylmethyl)-2-hydroxy-4-isopropyl-5-hexenyl]-α-[(R)-α-[[[2-hydroxy-1-(hydroxymethyl)-1-methylethyl]carbamoyl]methyl]hydrocinnamamido]imidazole-4-propionamide], the pIC50 was 7.77.

In turn, `C=C[C@@H](C[C@H](O)[C@H](CC1CCCCC1)NC(=O)[C@H](Cc1c[nH]cn1)NC(=O)[C@H](Cc1ccccc1)NC(=O)[C@H]1CCCN1C(=O)OC(C)(C)C)C(C)C` [B, (2S,3S,5S)-2-(Boc--D--Pro--Phe--His--NH)-1-cyclohexyl-5-isopropyl-6-hepten-3-ol] had a pIC50 of 9.52.

For `C=C[C@@H](C[C@H](O)[C@H](CC1CCCCC1)NC(=O)[C@H](Cc1c[nH]cn1)NC(=O)[C@H](Cc1ccccc1)NC(=O)N1CCOCC1)C(C)C` [M], the pIC50 was 7.68.

In turn, `CC[C@@H](C[C@H](O)[C@H](CC1CCCCC1)NC(=O)[C@H](Cc1c[nH]cn1)NC(=O)[C@H](Cc1ccccc1)NC(=O)OC(C)(C)C)C(C)C` [E, t-butyl [(S)-α-[[(S)-1-[[(1S,2S,4S)-1-cyclohexylmethyl-2-hydroxy-4-isopropylhexyl]carbamoyl]-2-imidazol-4-ylethyl]carbamoyl]phenethyl]carbamate] gave a negative-log IC50 (pIC50) of 8.10.

Broadly, the pIC50 is the negative decadic logarithm of the IC50, by convention in mol/L. High values mean a small IC50, low ones a large IC50.

Source of the values: patent US5250517A (Hoffmann-La Roche Inc., priority 1987, dated 1993).
